# Measured values published in publication PMC8550792, “Evolution of kinase polypharmacology across HSP90 drug discovery” (Cell Chemical Biology, 2021).
# Several values for one entry are separate records, joined by “and”; a condition that tells them apart may be missing. Equal values may be shown once. Read-outs that look alike come from different tables or passages of the source.
# Legend:
# PEAK1 = biological target: T1, PEAK1 (Homo sapiens, UniProt Q9H792); assay: HotSpot in vitro kinase radiometric assay; format: biochemical; details: Fig 6C median ± standard deviation (n = 2)
# T1 construct: purchased Reaction Biology (HotSpot contract assay)
# HSP90AB1 = system: HSP90AB1; set-up: method as in ChEMBL23 (accessed: 23/08/2018); details: average of reported values; ref ChEMBL23 (accessed: 23/08/2018); cited from earlier work
# TRKA = biological target: T2, TRKA (Homo sapiens, UniProt P04629); assay: HotSpot in vitro kinase radiometric assay; format: biochemical; details: read-out: % inhibition at 10 uM: TRKA; 10 μM; Fig 6C median ± standard deviation (n = 2)
# T2 construct: purchased Reaction Biology (HotSpot contract assay)
# In short: (§1)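 Radiometric catalytic assay: compounds incubated with kinase, substrate, cofactors and ³²P- or ³³P-γ-ATP. Reactions spotted onto filter paper that binds the labeled product, giving a direct measure of inhibition of catalytic activity without modified substrates or coupling enzymes.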
# PASK = biological target: T3, PASK (Homo sapiens, UniProt Q96RG2); assay: HotSpot in vitro kinase radiometric assay; format: biochemical; details: read-out: % inhibition at 10 uM: PASK; 10 μM; Fig 6C median ± standard deviation (n = 2)
# T3 construct: purchased Reaction Biology (HotSpot contract assay)
# In short: as §1
# HSP90AA1 = details: average of reported values; ref ChEMBL23 (accessed: 23/08/2018); cited from earlier work
# 382 unique human kinases [1] = biological target: T4, 382 unique human kinases (Homo sapiens, UniProt Q00534); assay: biochemical; format: biochemical; details: CDK6/cyclin D3, 10 uM
# T4 construct: purchased Reaction Biology (HotSpot contract assay)
# 382 unique human kinases [2] = biological target: T5, 382 unique human kinases (Homo sapiens, UniProt P11802); assay: biochemical; format: biochemical; details: CDK4/cyclin D3, [ATP] 5 µM, compound 10 uM
# T5 construct: purchased Reaction Biology (HotSpot contract assay)
# 382 unique human kinases [3] = assay: biochemical; format: biochemical
# 382 unique human kinases [4] = biological target: T6, 382 unique human kinases (Homo sapiens, UniProt P24941); assay: biochemical; format: biochemical; details: 10 uM; for remaining activity at 10 µM: read-out: % Enzyme Activity (relative to DMSO controls)
# T6 construct: purchased Reaction Biology (HotSpot contract assay)
# 382 unique human kinases [5] = biological target: T7, 382 unique human kinases (Homo sapiens, UniProt P50750); assay: biochemical; format: biochemical; details: CDK9/cyclin T1, 10 uM
# T7 construct: purchased Reaction Biology (HotSpot contract assay)
# FYN = biological target: T8, FYN (Homo sapiens, UniProt P06241); assay: HotSpot in vitro kinase radiometric assay; format: biochemical; details: read-out: % inhibition at 10 uM: FYN; 10 μM; Fig 6C median ± standard deviation (n = 2)
# T8 construct: purchased Reaction Biology (HotSpot contract assay)
# TRAP1 = system: TRAP1; set-up: method as in ChEMBL23 (accessed: 23/08/2018); details: average of reported values; ref ChEMBL23 (accessed: 23/08/2018); cited from earlier work
# ABL2/ARG = biological target: T9, ABL2/ARG (Homo sapiens, UniProt P42684); assay: HotSpot in vitro kinase radiometric assay; format: biochemical
# T9 construct: purchased Reaction Biology (HotSpot contract assay)
# FGR = biological target: T10, FGR (Homo sapiens, UniProt P09769); assay: HotSpot in vitro kinase radiometric assay; format: biochemical; details: read-out: % inhibition at 10 uM: FGR; 10 μM; Fig 6C median ± standard deviation (n = 2)
# T10 construct: purchased Reaction Biology (HotSpot contract assay)
# LYN B = biological target: T11, LYN B (Homo sapiens, UniProt P07948); assay: HotSpot in vitro kinase radiometric assay; format: biochemical; details: read-out: % inhibition at 10 uM: LYN B; 10 μM; Fig 6C median ± standard deviation (n = 2)
# T11 construct: purchased Reaction Biology (HotSpot contract assay)
# In short: as §1
# PDK2/PDHK2 = biological target: T12, PDK2/PDHK2 (Homo sapiens, UniProt Q15119); assay: HotSpot in vitro kinase radiometric assay; format: biochemical; details: read-out: % inhibition at 10 uM: PDK2; 10 μM; Fig 6C median ± standard deviation (n = 2)
# T12 construct: purchased Reaction Biology (HotSpot contract assay)
# In short: as §1
# ABL1 = ABL1 (Homo sapiens, UniProt P00519); assay: HotSpot in vitro kinase radiometric assay; format: biochemical; set-up: purchased Reaction Biology (HotSpot contract assay)
# TRKA-TFG (TRK-T3) = biological target: T13, TRKA-TFG (TRK-T3) (Homo sapiens, UniProt P04629+Q92734); assay: HotSpot in vitro kinase radiometric assay; format: biochemical; details: radiometric 10-point concentration-response, n = 3; read-out: in vitro biochemical IC50, TRKA-TFG
# T13 construct: purchased Reaction Biology (HotSpot contract assay)
# YES/YES1 = biological target: T14, YES/YES1 (Homo sapiens, UniProt P07947); assay: HotSpot in vitro kinase radiometric assay; format: biochemical; details: read-out: % inhibition at 10 uM: YES; 10 μM; Fig 6C median ± standard deviation (n = 2)
# T14 construct: purchased Reaction Biology (HotSpot contract assay)
# DDR1 = DDR1 (Homo sapiens, UniProt Q08345); assay: HotSpot in vitro kinase radiometric assay; format: biochemical; set-up: purchased Reaction Biology (HotSpot contract assay)
# LCK = biological target: T15, LCK (Homo sapiens, UniProt P06239); assay: HotSpot in vitro kinase radiometric assay; format: biochemical; details: read-out: % inhibition at 10 uM: LCK; 10 μM; Fig 6C median ± standard deviation (n = 2)
# T15 construct: purchased Reaction Biology (HotSpot contract assay)
# [6] = read-out: % Enzyme Activity (relative to DMSO controls)
# [7] = 10 μM, Fig 6C median ± standard deviation (n = 2)
# T9 sequence (P42684 whole entry): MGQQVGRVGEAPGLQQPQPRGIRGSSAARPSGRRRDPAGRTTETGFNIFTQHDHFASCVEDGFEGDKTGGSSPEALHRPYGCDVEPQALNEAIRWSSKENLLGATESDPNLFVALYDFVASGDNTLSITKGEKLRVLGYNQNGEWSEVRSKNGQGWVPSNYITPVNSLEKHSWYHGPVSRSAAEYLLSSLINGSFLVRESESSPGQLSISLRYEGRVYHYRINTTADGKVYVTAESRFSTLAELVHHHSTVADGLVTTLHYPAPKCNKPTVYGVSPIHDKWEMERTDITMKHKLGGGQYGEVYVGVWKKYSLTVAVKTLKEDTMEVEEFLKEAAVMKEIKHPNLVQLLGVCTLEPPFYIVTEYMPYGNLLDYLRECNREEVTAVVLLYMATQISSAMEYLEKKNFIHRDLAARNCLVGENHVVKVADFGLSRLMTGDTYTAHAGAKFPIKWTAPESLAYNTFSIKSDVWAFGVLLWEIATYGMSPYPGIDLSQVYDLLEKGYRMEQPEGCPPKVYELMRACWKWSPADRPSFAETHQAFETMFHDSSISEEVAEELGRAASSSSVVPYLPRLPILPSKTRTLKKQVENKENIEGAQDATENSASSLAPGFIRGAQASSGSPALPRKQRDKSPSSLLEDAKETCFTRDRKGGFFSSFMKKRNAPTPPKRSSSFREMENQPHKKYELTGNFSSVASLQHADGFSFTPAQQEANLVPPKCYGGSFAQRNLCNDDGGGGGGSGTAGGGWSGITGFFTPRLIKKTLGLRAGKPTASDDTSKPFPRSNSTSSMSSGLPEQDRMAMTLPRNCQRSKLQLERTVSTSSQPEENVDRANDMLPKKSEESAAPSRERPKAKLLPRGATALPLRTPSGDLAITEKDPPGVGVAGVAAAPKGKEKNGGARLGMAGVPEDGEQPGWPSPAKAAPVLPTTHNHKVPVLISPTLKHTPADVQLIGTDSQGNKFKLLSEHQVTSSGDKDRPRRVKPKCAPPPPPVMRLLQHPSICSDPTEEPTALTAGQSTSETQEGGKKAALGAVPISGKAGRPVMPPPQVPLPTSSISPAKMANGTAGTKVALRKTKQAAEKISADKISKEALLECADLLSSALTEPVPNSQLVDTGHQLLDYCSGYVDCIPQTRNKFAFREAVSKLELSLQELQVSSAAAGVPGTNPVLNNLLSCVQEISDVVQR
# ABL1, sequence (P00519 whole entry): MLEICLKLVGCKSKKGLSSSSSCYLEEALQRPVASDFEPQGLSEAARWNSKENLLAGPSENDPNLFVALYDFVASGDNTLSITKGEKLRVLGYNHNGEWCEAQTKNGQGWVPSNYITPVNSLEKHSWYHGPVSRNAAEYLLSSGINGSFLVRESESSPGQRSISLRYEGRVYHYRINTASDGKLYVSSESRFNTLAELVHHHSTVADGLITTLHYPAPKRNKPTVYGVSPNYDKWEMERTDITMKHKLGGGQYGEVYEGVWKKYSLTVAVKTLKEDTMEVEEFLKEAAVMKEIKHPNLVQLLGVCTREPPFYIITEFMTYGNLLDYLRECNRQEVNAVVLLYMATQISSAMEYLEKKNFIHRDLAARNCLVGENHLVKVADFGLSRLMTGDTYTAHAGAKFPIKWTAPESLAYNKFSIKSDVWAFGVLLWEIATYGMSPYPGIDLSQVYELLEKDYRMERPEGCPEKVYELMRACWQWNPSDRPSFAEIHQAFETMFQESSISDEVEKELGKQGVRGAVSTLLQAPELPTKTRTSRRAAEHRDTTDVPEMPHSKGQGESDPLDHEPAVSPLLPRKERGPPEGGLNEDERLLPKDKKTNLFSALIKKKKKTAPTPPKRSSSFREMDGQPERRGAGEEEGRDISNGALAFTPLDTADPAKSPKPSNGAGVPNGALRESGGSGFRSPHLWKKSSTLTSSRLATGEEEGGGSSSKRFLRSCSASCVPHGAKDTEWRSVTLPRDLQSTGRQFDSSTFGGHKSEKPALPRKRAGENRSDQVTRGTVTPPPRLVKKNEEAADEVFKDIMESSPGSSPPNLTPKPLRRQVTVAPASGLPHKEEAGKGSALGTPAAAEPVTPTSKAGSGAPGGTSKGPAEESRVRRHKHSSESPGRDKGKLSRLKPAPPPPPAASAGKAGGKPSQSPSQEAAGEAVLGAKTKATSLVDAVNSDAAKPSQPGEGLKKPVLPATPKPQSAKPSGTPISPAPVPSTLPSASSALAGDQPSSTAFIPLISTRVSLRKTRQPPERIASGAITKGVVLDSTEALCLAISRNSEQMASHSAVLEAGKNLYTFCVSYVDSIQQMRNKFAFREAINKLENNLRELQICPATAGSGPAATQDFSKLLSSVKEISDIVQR
# T4 sequence (Q00534 whole entry): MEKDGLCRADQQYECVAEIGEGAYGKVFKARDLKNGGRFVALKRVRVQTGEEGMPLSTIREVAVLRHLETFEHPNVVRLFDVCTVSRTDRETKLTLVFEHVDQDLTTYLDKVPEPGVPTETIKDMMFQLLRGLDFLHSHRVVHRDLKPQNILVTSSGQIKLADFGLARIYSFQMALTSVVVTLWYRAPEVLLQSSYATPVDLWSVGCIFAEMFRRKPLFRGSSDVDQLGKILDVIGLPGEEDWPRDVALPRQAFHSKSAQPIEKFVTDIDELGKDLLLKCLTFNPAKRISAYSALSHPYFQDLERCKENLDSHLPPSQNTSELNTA
# T1 sequence (Q9H792 whole entry): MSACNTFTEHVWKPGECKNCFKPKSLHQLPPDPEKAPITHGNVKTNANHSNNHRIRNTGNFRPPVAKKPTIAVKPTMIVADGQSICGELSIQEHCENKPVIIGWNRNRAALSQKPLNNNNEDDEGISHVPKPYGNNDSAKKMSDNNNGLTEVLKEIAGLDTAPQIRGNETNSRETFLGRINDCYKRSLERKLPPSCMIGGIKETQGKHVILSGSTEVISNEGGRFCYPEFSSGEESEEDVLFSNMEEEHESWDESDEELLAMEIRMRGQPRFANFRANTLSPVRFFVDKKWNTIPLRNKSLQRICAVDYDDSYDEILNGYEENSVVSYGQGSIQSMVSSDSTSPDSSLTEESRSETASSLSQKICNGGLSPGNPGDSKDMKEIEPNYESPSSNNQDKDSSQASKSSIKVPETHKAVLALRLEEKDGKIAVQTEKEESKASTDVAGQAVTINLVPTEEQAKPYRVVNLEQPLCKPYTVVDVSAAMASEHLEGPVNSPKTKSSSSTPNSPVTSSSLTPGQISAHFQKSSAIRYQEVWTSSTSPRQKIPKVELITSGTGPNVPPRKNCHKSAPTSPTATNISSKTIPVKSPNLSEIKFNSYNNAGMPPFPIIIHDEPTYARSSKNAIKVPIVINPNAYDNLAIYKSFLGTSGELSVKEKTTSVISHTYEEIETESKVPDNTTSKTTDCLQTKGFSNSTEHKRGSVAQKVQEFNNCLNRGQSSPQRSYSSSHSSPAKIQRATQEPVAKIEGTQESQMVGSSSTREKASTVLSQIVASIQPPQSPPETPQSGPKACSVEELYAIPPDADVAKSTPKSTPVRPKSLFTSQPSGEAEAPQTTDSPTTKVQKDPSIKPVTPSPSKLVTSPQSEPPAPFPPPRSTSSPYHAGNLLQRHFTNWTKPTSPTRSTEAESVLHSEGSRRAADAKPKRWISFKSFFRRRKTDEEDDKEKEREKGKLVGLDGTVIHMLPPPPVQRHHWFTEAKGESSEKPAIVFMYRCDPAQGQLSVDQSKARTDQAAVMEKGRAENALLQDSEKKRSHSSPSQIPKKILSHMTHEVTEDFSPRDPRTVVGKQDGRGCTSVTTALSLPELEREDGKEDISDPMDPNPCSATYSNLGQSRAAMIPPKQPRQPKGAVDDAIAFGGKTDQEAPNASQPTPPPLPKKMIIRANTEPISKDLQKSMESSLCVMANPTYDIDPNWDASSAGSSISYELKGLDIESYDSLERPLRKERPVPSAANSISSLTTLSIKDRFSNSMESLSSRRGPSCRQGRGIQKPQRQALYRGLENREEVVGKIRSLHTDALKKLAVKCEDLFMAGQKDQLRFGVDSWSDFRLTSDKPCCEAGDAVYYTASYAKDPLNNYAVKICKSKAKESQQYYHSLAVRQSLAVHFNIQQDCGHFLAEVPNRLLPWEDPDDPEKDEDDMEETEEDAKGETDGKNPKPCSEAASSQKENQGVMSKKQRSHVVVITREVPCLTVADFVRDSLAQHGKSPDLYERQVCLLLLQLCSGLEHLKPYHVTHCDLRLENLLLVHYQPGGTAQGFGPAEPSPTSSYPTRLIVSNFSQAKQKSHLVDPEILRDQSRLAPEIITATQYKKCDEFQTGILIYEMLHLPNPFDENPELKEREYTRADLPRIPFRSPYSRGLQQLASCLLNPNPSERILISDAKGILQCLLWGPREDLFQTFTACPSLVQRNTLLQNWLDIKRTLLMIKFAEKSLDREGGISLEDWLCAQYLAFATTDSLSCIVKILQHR
# T7 sequence (P50750 whole entry): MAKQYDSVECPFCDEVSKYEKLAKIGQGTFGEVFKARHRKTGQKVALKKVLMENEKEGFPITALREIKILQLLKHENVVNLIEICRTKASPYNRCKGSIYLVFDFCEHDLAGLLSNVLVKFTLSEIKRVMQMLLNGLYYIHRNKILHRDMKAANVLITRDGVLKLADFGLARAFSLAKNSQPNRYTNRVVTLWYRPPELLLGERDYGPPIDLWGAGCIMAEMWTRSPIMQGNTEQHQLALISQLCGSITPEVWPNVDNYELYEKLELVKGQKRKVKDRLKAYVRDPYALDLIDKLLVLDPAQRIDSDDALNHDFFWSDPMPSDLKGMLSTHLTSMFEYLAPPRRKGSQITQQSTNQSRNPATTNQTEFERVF
# T5 sequence (P11802 whole entry): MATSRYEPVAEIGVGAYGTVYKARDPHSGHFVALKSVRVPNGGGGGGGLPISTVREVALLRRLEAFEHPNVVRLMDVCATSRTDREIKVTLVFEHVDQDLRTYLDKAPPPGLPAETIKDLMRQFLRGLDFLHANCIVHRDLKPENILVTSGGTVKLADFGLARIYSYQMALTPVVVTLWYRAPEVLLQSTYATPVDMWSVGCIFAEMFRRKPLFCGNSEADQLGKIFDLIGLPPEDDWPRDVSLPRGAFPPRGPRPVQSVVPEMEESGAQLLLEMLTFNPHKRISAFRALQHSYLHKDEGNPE
compound,measurement,setting,value
CCNC(=O)c1noc(-c2cc(C(C)C)c(O)cc2O)c1-c1ccc(CN2CCOCC2)cc1 [Luminespib],% inhibition at 10 uM: PEAK1,PEAK1; 10 μM,70 ± 1%
same,inhibition at 10 µM,"PEAK1; read-out: % inhibition at 10 uM: PEAK1, 10 μM",> 70%
same,"pActivity, HSP90AB1",HSP90AB1,8.09
same,inhibition at 10 µM,TRKA,-1%
same,inhibition at 10 µM,PASK,1%
same,"pActivity, HSP90AA1",HSP90AA1,8.01
same,% Enzyme Activity (relative to DMSO controls),382 unique human kinases [1],112.00%
same,remaining activity at 10 µM,382 unique human kinases [1]; [6],113%
same,% Enzyme Activity (relative to DMSO controls),382 unique human kinases [2],101.56%
same,remaining activity at 10 µM,382 unique human kinases [2]; [6],102%
same,number of kinase off-targets inhibited by more than 50% at 10 μM,382 unique human kinases [3]; 10 μM,14
same,number of native kinases inhibited by more than 85% at 10 μM,382 unique human kinases [3]; 10 μM,two
same,% Enzyme Activity (relative to DMSO controls),"382 unique human kinases [3]; ALK (T1151-L1152insT), [ATP] 20 µM, compound 10 uM",108.18% and 107.06%
same,% Enzyme Activity (relative to DMSO controls),"382 unique human kinases [3]; ALK-TPM3, [ATP] 15 µM, compound 10 uM",105.28% and 105.22%
same,% Enzyme Activity (relative to DMSO controls),"382 unique human kinases [3]; BRAF (T599_V600insT), 10 uM",98.93% and 97.05%
same,% Enzyme Activity (relative to DMSO controls),"382 unique human kinases [3]; BRAF-FAM131B (Fex2Bex9), 10 uM",111.02% and 110.19%
same,% Enzyme Activity (relative to DMSO controls),"382 unique human kinases [3]; EGFR (d746-750/C797S), 10 uM",93.95% and 93.48%
same,% Enzyme Activity (relative to DMSO controls),"382 unique human kinases [3]; ERBB2 (V777_G778insCG), 10 uM",103.65% and 102.78%
same,% Enzyme Activity (relative to DMSO controls),"382 unique human kinases [3]; FGFR1OP-FGFR1, [ATP] 10 µM, compound 10 uM",103.05% and 103.02%
same,% Enzyme Activity (relative to DMSO controls),"382 unique human kinases [3]; FLT3 (ITD), [ATP] 30 µM, compound 10 uM",91.11% and 89.12%
same,In vitro screening: kinases hit / kinases screened,382 unique human kinases [3]; Figure 3,2/382
same,% Enzyme Activity (relative to DMSO controls),"382 unique human kinases [3]; KSR1 (A635F), 10 uM",100.08% and 96.91%
same,% Enzyme Activity (relative to DMSO controls),"382 unique human kinases [3]; LYN B, [ATP] 20 µM, compound 10 uM",26.10% and 25.22%
same,% Enzyme Activity (relative to DMSO controls),"382 unique human kinases [3]; PKCb2, 10 uM",102.18% and 101.94%
same,% Enzyme Activity (relative to DMSO controls),"382 unique human kinases [3]; ROS1-GOPC, [ATP] 15 µM, compound 10 uM",101.12% and 99.93%
same,% Enzyme Activity (relative to DMSO controls),"382 unique human kinases [3]; TRKA-TFG (TRK-T3), [ATP] 20 µM, compound 10 uM",85.72% and 85.69%
same,% Enzyme Activity (relative to DMSO controls),"382 unique human kinases [3]; TRKA-TPM3, [ATP] 50 µM, compound 10 uM",90.74% and 88.03%
same,% Enzyme Activity (relative to DMSO controls),"382 unique human kinases [3]; TRKA-TPR, [ATP] 50 µM, compound 10 uM",90.04% and 89.94%
same,% Enzyme Activity (relative to DMSO controls),"382 unique human kinases [3]; c-Kit (d557-558), [ATP] 10 µM, compound 10 uM",63.45% and 62.37%
same,"number of off-target kinases experimentally identified, In vitro binding (KinomeSCAN)","382 unique human kinases [3]; cutoff of >85% inhibition at 10 μM, luminespib and ganetespib large kinome panel, others 16-kinase panel",2
same,% Enzyme Activity (relative to DMSO controls),382 unique human kinases [4]; CDK2/Cyclin A1,96.40%
same,remaining activity at 10 µM,382 unique human kinases [4]; CDK2/Cyclin A1,97.4%
same,% Enzyme Activity (relative to DMSO controls),382 unique human kinases [4]; CDK2/cyclin E,98.18%
same,remaining activity at 10 µM,382 unique human kinases [4]; CDK2/cyclin E,101%
same,% Enzyme Activity (relative to DMSO controls),382 unique human kinases [5],103.10%
same,remaining activity at 10 µM,382 unique human kinases [5]; [6],105%
same,inhibition at 10 µM,FYN,35%
same,"pActivity, TRAP1",TRAP1,7.67
same,% inhibition at 10 uM: ABL2,ABL2/ARG; [7],92 ± 0%
same,HILLSLOPE,"ABL2/ARG; ABL2, single replicate curves",-2.11 and -2.06 and -1.92
same,IC50,"ABL2/ARG; ABL2, single replicate curves, read-out: IC50",4.57 µM and 4.33 µM and 4.12 µM
same,IC50,"ABL2/ARG; radiometric 10-point concentration-response, n = 3, read-out: in vitro biochemical IC50, ABL2",4.34 µM
same,inhibition at 10 µM,"ABL2/ARG; read-out: % inhibition at 10 uM: ABL2, 10 μM, Fig 6C median ± standard deviation (n = 2)",> 85%
same,inhibition at 10 µM,FGR,66 ± 1%
same,inhibition at 10 µM,LYN B,74 ± 1%
same,inhibition at 10 µM,PDK2/PDHK2,78 ± 1%
same,% inhibition at 10 uM: ABL1,ABL1; [7],93 ± 1%
same,HILLSLOPE,"ABL1; ABL1, single replicate curves",-3.07 and -2.62 and -3.14
same,IC50,"ABL1; ABL1, single replicate curves, read-out: IC50",3.57 µM and 3.39 µM and 3.22 µM
same,IC50,"ABL1; radiometric 10-point concentration-response, n = 3, read-out: in vitro biochemical IC50, ABL1",3.39 µM
same,inhibition at 10 µM,"ABL1; read-out: % inhibition at 10 uM: ABL1, 10 μM, Fig 6C median ± standard deviation (n = 2)",> 85%
same,IC50,TRKA-TFG (TRK-T3),> 10 µM
same,inhibition at 10 µM,YES/YES1,49 ± 2%
same,IC50,"DDR1; radiometric 10-point concentration-response, n = 3, read-out: in vitro biochemical IC50, DDR1",> 10 µM
same,inhibition at 10 µM,"DDR1; read-out: % inhibition at 10 uM: DDR1, 10 μM, Fig 6C median ± standard deviation (n = 2)",15 ± 1%
same,inhibition at 10 µM,LCK,40 ± 2%
